Measurements as given in ChEMBL document CHEMBL4680351, “Antimicrobial and cytotoxic effects of ammonium derivatives of diterpenoids steviol and isosteviol” (Bioorg Med Chem, 2021).
Values after ≈ are worked out from the molar mass of the structure shown. Active and inactive are the calls of the source. The calls are words filed in the database; no cut-off is given here.

Key:
[1] = system: Staphylococcus aureus; test: Bactericidal activity against Staphylococcus aureus MRSA-2 measured every 24 hrs for 5 days by serial dilution method; format: functional; settings: MRSA-2, 120 h, time 5 day
[2] = system: Staphylococcus aureus; test: Bactericidal activity against Staphylococcus aureus 209P measured every 24 hrs for 5 days by serial dilution method; format: functional; settings: 120 h, time 5 day
[3] = system: Staphylococcus aureus; test: Antibacterial activity against Staphylococcus aureus MRSA-2 assessed as bacterial growth inhibition in Mueller-Hinton broth 2 measured every 24 hrs for 5 days by serial dilution method; format: functional; settings: MRSA-2, 120 h, time 5 day
[4] = system: Staphylococcus aureus; test: Antibacterial activity against Staphylococcus aureus 209P assessed as bacterial growth inhibition in Mueller-Hinton broth 2 measured every 24 hrs for 5 days by serial dilution method; format: functional; settings: 120 h, time 5 day
[5] = system: Staphylococcus aureus; test: Bactericidal activity against Staphylococcus aureus MRSA-1 measured every 24 hrs for 5 days by serial dilution method; format: functional; settings: MRSA-1, 120 h, time 5 day
[6] = system: Staphylococcus aureus; test: Antibacterial activity against Staphylococcus aureus MRSA-1 assessed as bacterial growth inhibition in Mueller-Hinton broth 2 measured every 24 hrs for 5 days by serial dilution method; format: functional; settings: MRSA-1, 120 h, time 5 day
[7] = system: Cell membrane; test: Induction of cytoplasmic membrane damage in Staphylococcus aureus 209P assessed as crystal violet absorption at 6 uM after 30 mins by crystal violet staining based microplate reader analysis (reference value: […] %); format: subcellular
[8] = system: WI-38; test: Cytotoxicity against human WI-38 cells assessed as reduction in cell viability by DAPI staining based assay
[9] = system: T98G; test: Cytotoxicity against human T98G cells assessed as reduction in cell viability by DAPI staining based assay
[10] = Selectivity index, ratio of IC50 for human WI-38 cells to IC50 for human PC-3 cells; format: toxicity; settings: WI-38 cells versus PC-3 cells, read-out: Ratio IC50
[11] = system: MCF7; test: Induction of apoptosis in human MCF7 cells assessed as activation of Bad at 5 uM after 24 hrs by fluorescence assay; format: functional, cell-based
[12] = system: Staphylococcus aureus; test: Induction of morphological changes in Staphylococcus aureus 209P assessed as cell lysis at 3 uM by TEM analysis; format: functional, organism-based
[13] = system: MCF7; test: Induction of apoptosis in human MCF7 cells assessed as activation of p53 at 5 uM after 24 hrs by fluorescence assay; format: functional, cell-based
[14] = system: MCF7; test: Induction of apoptosis in human MCF7 cells assessed as activation of JNK at 5 uM after 24 hrs by fluorescence assay; format: functional, cell-based
[15] = system: Staphylococcus aureus; test: Antibacterial activity against Staphylococcus aureus 209P assessed as bacterial growth inhibition; format: functional
[16] = system: MCF7; test: Induction of apoptosis in human MCF7 cells assessed as viable cells at 5 uM after 24 hrs by annexin V-FITC and propidium iodide staining based flow cytometry (reference value: 91.42 %); format: functional; settings: read-out: Activity
[17] = system: Staphylococcus aureus; test: Induction of morphological changes in Staphylococcus aureus 209P assessed as cell wall damage at 3 uM by TEM analysis; format: functional, organism-based
[18] = system: MCF7; test: Induction of apoptosis in human MCF7 cells assessed as early apoptotic cells at 10 uM after 24 hrs by annexin V-FITC and propidium iodide staining based flow cytometry (reference value: 5.03 %); format: functional
[19] = Hemolytic activity against human erythrocytes after 1 hr by digital photoelectric colorimetric method; format: ADME, cell-based, Erythrocyte
[20] = system: MCF7; test: Induction of apoptosis in human MCF7 cells assessed as viable cells at 10 uM after 24 hrs by annexin V-FITC and propidium iodide staining based flow cytometry (reference value: 91.42 %); format: functional; settings: read-out: Activity
[21] = system: Cell membrane; test: Induction of cytoplasmic membrane damage in Staphylococcus aureus 209P assessed as crystal violet absorption at 3 uM after 30 mins by crystal violet staining based microplate reader analysis (reference value: […] %); format: subcellular
[22] = Selectivity index, ratio of IC50 for human WI-38 cells to IC50 for human HeLa cells; format: toxicity; settings: WI-38 cells versus HeLa cells, read-out: Ratio IC50
[23] = system: MCF7; test: Induction of apoptosis in human MCF7 cells assessed as activation of caspase-9 at 5 uM after 24 hrs by fluorescence assay relative to control; format: functional
[24] = system: Cell membrane; test: Induction of cytoplasmic membrane damage in Staphylococcus aureus 209P assessed as crystal violet absorption at 1.5 uM after 30 mins by crystal violet staining based microplate reader analysis (reference value: […] %); format: subcellular
[25] = Selectivity index, ratio of IC50 for human WI-38 cells to IC50 for human MCF7 cells; format: toxicity; settings: WI-38 cells versus MCF7 cells, read-out: Ratio IC50
[26] = system: A549; test: Cytotoxicity against human A549 cells assessed as reduction in cell viability by DAPI staining based assay
[27] = system: MCF7; test: Induction of apoptosis in human MCF7 cells assessed as dead cells at 5 uM after 24 hrs by annexin V-FITC and propidium iodide staining based flow cytometry (reference value: 0.15 %); format: functional
[28] = system: MCF7; test: Induction of apoptosis in human MCF7 cells assessed as late apoptotic cells at 5 uM after 24 hrs by annexin V-FITC and propidium iodide staining based flow cytometry (reference value: 3.4 %); format: functional
[29] = system: Staphylococcus aureus; test: Induction of morphological changes in Staphylococcus aureus 209P assessed as change in cytoplasmic content at 3 uM by TEM analysis; format: functional, organism-based
[30] = Selectivity index, ratio of IC50 for human WI-38 cells to IC50 for human A549 cells; format: toxicity; settings: WI-38 cells versus A549 cells, read-out: Ratio IC50
[31] = system: Staphylococcus aureus; test: Bacteriostatic activity against Staphylococcus aureus MRSA-2 measured every 24 hrs for 5 days by serial dilution method relative to amoxicillin; format: functional; settings: time 5 day
[32] = Selectivity index, ratio of IC50 for human WI-38 cells to IC50 for human HepG2 cells; format: toxicity; settings: WI-38 cells versus HepG2 cells, read-out: Ratio IC50
[33] = system: PC-3; test: Cytotoxicity against human PC-3 cells assessed as reduction in cell viability by DAPI staining based assay
[34] = system: Staphylococcus aureus; test: Bacteriostatic activity against Staphylococcus aureus MRSA-2 measured every 24 hrs for 5 days by serial dilution method; format: functional, organism-based; settings: time 5.0 day
[35] = system: MCF7; test: Induction of apoptosis in human MCF7 cells assessed as activation of Bcl-2 at 5 uM after 24 hrs by fluorescence assay; format: functional, cell-based
[36] = system: MCF7; test: Induction of apoptosis in human MCF7 cells assessed as early apoptotic cells at 5 uM after 24 hrs by annexin V-FITC and propidium iodide staining based flow cytometry (reference value: 5.03 %); format: functional
[37] = system: MCF7; test: Induction of apoptosis in human MCF7 cells assessed as dead cells at 10 uM after 24 hrs by annexin V-FITC and propidium iodide staining based flow cytometry (reference value: 0.15 %); format: functional
[38] = system: MCF7; test: Induction of apoptosis in human MCF7 cells assessed as activation of caspase-8 at 5 uM after 24 hrs by fluorescence assay; format: functional, cell-based
[39] = system: HepG2; test: Cytotoxicity against human HepG2 cells assessed as reduction in cell viability by DAPI staining based assay
[40] = system: MCF7; test: Induction of mitochondrial membrane potential loss in human MCF7 cells assessed as cell population with intact mitochondrial membrane potential at 5 uM after 24 hrs by JC-10 staining-based flow cytometric analysis (reference value: 98.73 %); format: functional
[41] = system: Staphylococcus aureus; test: Induction of morphological changes in Staphylococcus aureus 209P assessed as cytoplasmic disintegration at 3 uM by TEM analysis; format: functional, organism-based
[42] = system: MCF7; test: Cytotoxicity against human MCF7 cells assessed as reduction in cell viability by DAPI staining based assay; format: functional
[43] = system: MCF7; test: Induction of apoptosis in human MCF7 cells assessed as late apoptotic cells at 10 uM after 24 hrs by annexin V-FITC and propidium iodide staining based flow cytometry (reference value: 3.4 %); format: functional
[44] = Selectivity index, ratio of IC50 for human WI-38 cells to IC50 for human T98G cells; format: toxicity; settings: WI-38 cells versus T98G cells, read-out: Ratio IC50
[45] = system: Staphylococcus aureus; test: Bacteriostatic activity against Staphylococcus aureus MRSA-1 measured every 24 hrs for 5 days by serial dilution method; format: functional, organism-based
[46] = system: MCF7; test: Induction of mitochondrial membrane potential loss in human MCF7 cells assessed as cell population with mitochondrial membrane potential collapse at 10 uM after 24 hrs by JC-10 staining-based flow cytometric analysis (reference value: 1.05 %); format: functional
[47] = system: MCF7; test: Induction of apoptosis in human MCF7 cells assessed as activation of Akt at 5 uM after 24 hrs by fluorescence assay; format: functional, cell-based
[48] = system: MCF7; test: Induction of mitochondrial membrane potential loss in human MCF7 cells assessed as cell population with mitochondrial membrane potential collapse at 5 uM after 24 hrs by JC-10 staining-based flow cytometric analysis (reference value: 1.05 %); format: functional
[49] = system: Cell membrane; test: Induction of cytoplasmic membrane damage in Staphylococcus aureus 209P assessed as crystal violet absorption at 0.7 uM after 30 mins by crystal violet staining based microplate reader analysis (reference value: […] %); format: subcellular
[50] = system: MCF7; test: Induction of mitochondrial membrane potential loss in human MCF7 cells assessed as cell population with intact mitochondrial membrane potential at 10 uM after 24 hrs by JC-10 staining-based flow cytometric analysis (reference value: 98.73 %); format: functional
[51] = system: HeLa; test: Cytotoxicity against human HeLa cells assessed as reduction in cell viability by DAPI staining based assay

Structure (SMILES): O=C(O)c1cn(C2CC2)c2cc(N3CCNCC3)c(F)cc2c1=O [CIPROFLOXACIN]
- MBC [1]: 2.7 µM (≈ 0.895 µg/mL)
- MBC [2]: 1.5 µM (≈ 0.497 µg/mL)
- MIC [3]: 2.7 µM (≈ 0.895 µg/mL)
- MIC [4]: 1.5 µM (≈ 0.497 µg/mL)
- MBC [5]: 755 µM (≈ 250 µg/mL)
- MIC [6]: 377 µM (≈ 125 µg/mL)

Structure (SMILES): C[C@@]12CC[C@@H]3[C@@](CC[C@H]4[C@@]3(C)CCC[C@@]4(C)C(=O)OCC[N+](C)(C)CCCCCCCCCCCC[N+](C)(C)CCOC(=O)[C@]3(C)CCC[C@@]4(C)[C@@H]5CC[C@@]6(C)C[C@]5(CC[C@@H]43)CC6=O)(CC1=O)C2.[Br-].[Br-]
- Activity [7]: 63%
- IC50 [8]: 25 µM
- MBC [1]: 1.4 µM
- IC50 [9]: 39.6 µM
- selectivity ratio [10]: 1.9
- Activity [11]: Active
- Activity [12]: Active
- Activity [13]: Active
- Activity [14]: Active
- MIC [15]: 0.7 µM
- viability at 5 µM [16]: 29.9%
- Activity [17]: Active
- Activity [18]: 41.39%
- MBC [2]: 0.7 µM
- HC50 at 1 h [19]: 20.3 µM
- viability at 10 µM [20]: 24.9%
- Activity [21]: 24%
- selectivity ratio [22]: 1.1
- fold change (FC) [23]: >=2
- Activity [24]: 13%
- selectivity ratio [25]: 5
- IC50 [26]: 12.5 µM
- Activity [27]: 16.61%
- MIC [3]: 1.4 µM
- Activity [28]: 25.95%
- MBC [5]: 2.8 µM
- Activity [29]: Active
- selectivity ratio [30]: 2
- fold change (FC) [31]: 15
- selectivity ratio [32]: 1.3
- IC50 [33]: 13 µM
- Activity [34]: Active
- Activity [35]: inactive
- Activity [36]: 27.59%
- Activity [37]: 5.24%
- Activity [38]: inactive
- IC50 [39]: 19.5 µM
- Activity [40]: 88.28%
- Activity [41]: Active
- IC50 [42]: 5 µM
- Activity [43]: 28.47%
- selectivity ratio [44]: 0.6
- Activity [45]: Active
- MIC [6]: 2.8 µM
- Activity [46]: 92.1%
- Activity [47]: Active
- Activity [48]: 11.65%
- Activity [49]: 7%
- Activity [50]: 7.76%
- IC50 [51]: 22 µM

Structure (SMILES): CC1(C)S[C@@H]2[C@H](NC(=O)[C@H](N)c3ccc(O)cc3)C(=O)N2[C@H]1C(=O)O [AMOXICILLIN]
- MBC [1]: 85.7 µM (≈ 31.3 µg/mL)
- MBC [2]: 2.5 µM (≈ 0.914 µg/mL)
- MIC [3]: 85.7 µM (≈ 31.3 µg/mL)
- MIC [4]: 0.7 µM (≈ 0.256 µg/mL)
- MBC [5]: 85.7 µM (≈ 31.3 µg/mL)
- MIC [6]: 85.7 µM (≈ 31.3 µg/mL)
